Structures are written as SMILES.

We go through six molecules from ChEMBL document CHEMBL1133999, “3-Deoxy-3-substituted-D-myo-inositol imidazolyl ether lipid phosphates and carbonate as inhibitors of the phosphatidylinositol 3-kinase pathway and cancer cell growth” (Bioorg Med Chem Lett, 2001).

For series [1], the target named is Serine/threonine-protein kinase AKT (Homo sapiens, UniProt P31751+Q9Y243+P31749). Description: Inhibition of Akt (proto-oncogenic serine/threonine) kinase. The format is protein assay.
The next series deals with HT-29. Nature of the series: Inhibition of human colon carcinoma (HT-29) cell proliferation. Format: functional, cell-based.
The subject of a further series is MCF7. Nature of the series: Inhibition of MCF-7 (breast) cancer cell proliferation. The format is functional, cell-based. The settings on record: Homo sapiens.
The next series concerns NIH3T3. Description: Inhibition of NIH3T3 cell proliferation. The format is functional, cell-based. The settings on record: Mus musculus.
For series [2], the target named is PI3-kinase p110-alpha/p85-alpha (Homo sapiens, UniProt P42336). Nature of the series: Inhibition of […]/p85 PI3-kinase (phosphatidylinositol 3-kinase). Format: protein-complex assay.
A short description of series [3]: Partition coefficient (logP). Format: physicochemical. Particulars: octanol/water.

Chain of PI3-kinase p110-alpha/p85-alpha (P27986 whole entry): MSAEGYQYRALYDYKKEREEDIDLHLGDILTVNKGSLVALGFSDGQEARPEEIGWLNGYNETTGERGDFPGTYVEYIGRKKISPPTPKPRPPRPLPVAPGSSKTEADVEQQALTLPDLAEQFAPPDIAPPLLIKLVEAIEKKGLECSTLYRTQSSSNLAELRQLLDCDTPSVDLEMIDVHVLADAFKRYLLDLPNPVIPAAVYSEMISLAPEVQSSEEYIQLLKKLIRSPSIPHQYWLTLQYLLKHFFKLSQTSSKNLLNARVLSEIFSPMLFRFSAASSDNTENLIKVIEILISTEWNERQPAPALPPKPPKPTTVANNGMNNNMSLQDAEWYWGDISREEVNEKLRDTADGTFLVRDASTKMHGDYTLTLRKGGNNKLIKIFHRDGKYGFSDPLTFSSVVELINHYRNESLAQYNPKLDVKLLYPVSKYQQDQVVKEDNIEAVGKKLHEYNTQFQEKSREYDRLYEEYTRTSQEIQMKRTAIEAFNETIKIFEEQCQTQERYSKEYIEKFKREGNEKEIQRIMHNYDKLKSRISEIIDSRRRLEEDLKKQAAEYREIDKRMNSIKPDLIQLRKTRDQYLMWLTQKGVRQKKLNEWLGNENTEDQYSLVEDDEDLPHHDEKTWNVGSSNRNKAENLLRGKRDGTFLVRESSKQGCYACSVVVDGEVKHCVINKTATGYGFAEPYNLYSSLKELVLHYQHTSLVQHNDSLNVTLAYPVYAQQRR
Chain of PI3-kinase p110-alpha/p85-alpha (P42336 whole entry): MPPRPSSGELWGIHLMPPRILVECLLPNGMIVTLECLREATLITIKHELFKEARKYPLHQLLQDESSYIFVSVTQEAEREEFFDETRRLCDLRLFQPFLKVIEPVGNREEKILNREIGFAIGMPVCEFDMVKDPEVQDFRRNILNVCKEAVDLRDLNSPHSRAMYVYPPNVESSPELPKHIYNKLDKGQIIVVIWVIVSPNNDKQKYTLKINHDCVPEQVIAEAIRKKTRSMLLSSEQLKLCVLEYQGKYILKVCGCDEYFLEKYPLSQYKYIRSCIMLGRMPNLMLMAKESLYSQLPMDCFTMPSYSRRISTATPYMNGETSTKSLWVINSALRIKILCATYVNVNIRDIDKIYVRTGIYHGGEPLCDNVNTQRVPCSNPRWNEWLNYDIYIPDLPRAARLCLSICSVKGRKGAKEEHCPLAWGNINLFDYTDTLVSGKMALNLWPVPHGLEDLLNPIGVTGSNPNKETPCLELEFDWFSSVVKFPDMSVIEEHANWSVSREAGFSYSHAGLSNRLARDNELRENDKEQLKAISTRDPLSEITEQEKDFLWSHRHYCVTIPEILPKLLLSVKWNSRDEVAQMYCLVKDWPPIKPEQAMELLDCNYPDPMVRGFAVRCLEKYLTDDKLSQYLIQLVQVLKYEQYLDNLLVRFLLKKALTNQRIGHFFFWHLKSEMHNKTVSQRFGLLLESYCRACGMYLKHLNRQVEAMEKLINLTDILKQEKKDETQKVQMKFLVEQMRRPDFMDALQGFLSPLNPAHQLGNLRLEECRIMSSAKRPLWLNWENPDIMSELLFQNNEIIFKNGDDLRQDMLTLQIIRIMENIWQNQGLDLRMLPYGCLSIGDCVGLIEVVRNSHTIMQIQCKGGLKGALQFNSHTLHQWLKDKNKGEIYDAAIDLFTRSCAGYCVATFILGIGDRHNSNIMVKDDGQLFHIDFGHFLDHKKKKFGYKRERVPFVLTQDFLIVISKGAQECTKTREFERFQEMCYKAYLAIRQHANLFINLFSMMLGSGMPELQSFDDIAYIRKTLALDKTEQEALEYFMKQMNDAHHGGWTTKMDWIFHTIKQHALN

As usually defined, the IC50 is the concentration at which inhibition is half-maximal. Lower therefore signals higher potency. Take `CCCCCCCCCCCCCCCCCCOC[C@H](COC(=O)OC1[C@@H](O)[C@@H](O)[C@H](O)[C@H](CO)[C@H]1O)OC` (single isomer, unassigned): the half-maximal inhibitory concentration (IC50) worked out at 5 µM in series [1]; 10 µM in the series on HT-29; 1.25 µM in the series with MCF7; 2 µM in the series with NIH3T3; 83 µM in series [2].
Regarding `CCCCCCCCCCCCCCCCCCOC[C@H](COP(=O)(O)OC1[C@H](O)C[C@@H](O)[C@H](O)[C@@H]1O)n1ccnc1` (single isomer, unassigned), the half-maximal inhibitory concentration (IC50) in series [1] came to 37.5 µM; with HT-29, 15 µM; with MCF7, 6 µM; with NIH3T3 it was 6.5 µM; in series [2] it was 14.5 µM.
A word on the logP: it is a log measure of how a compound divides between an organic and an aqueous phase. High values mean higher lipophilicity, low ones lower lipophilicity. Consider `CCCCCCCCCCCCCCCCCCOC[C@H](COP(=O)(O)OC1[C@H](O)C[C@@H](O)[C@H](O)[C@@H]1O)OC` (single isomer, unassigned), for which the logP in series [3] is 4.44. Besides, the IC50 in the series with NIH3T3 worked out at 4.5 µM; in series [2], 14.8 µM.
Take `CCCCCCCCCCCCCCCCCCOC[C@H](COC(=O)OC1[C@@H](O)[C@@H](O)[C@H](O)[C@H](CO)[C@@H]1O)n1ccnc1` (single isomer, unassigned): the IC50 in series [1] worked out at 15 µM; with HT-29, 15 µM; in the series on MCF7 it was 20 µM; with NIH3T3 it was 11.5 µM; in series [2], 49.5 µM.
As to `CCCCCCCCCCCCCCCCCCOC[C@H](COP(=O)(O)OC1[C@@H](O)[C@@H](O)[C@H](O)[C@H](CO)[C@H]1O)n1ccnc1` (single isomer, unassigned), the IC50 in series [1] was found to be 20.5 µM; in the series on HT-29 it was 6.5 µM; in the series with MCF7 it was 2 µM; in the series on NIH3T3 it was 8.2 µM; in series [2] it was 7.9 µM. Also, the logP in series [3] worked out at 3.22.
`CCCCCCCCCCCCCCCCCCOC[C@H](COP(=O)(O)OC1[C@@H](O)[C@@H](O)[C@H](O)[C@H](CO)[C@H]1O)OC` (single isomer, unassigned): the IC50 in series [1] is 7.8 µM; in the series on HT-29, 4.5 µM; in the series on MCF7 it was 5 µM; in the series on NIH3T3 it was 2 µM; in series [2] it was 31 µM.
